Test results as given in patent US20160113265A1, “[…] AND METHODS THEREOF” (Lanodir USA, Inc., priority 2014, published 2016).
Where two headings read alike, the source gives them in different places.

Assays:
Tribolium confusum = details: exposed for 24 Hours at 26.7° C. (80° F.), cited from earlier work
Amyelois transitella = details: exposed for 24 Hours at 26.7° C. (80° F.), cited from earlier work
Carpophilus hemipterus = details: exposed for 24 Hours at 26.7° C. (80° F.), cited from earlier work
live pests = test: Condition of fumigated barge cargo on arrival at destination port (residues, live pests); type: in vivo; details: approximately two weeks later
Procedure: (§1) A fumigation apparatus, such as the fumigation apparatus 10 (FIGS. 1A-1C), was provided in a barge hatch at a source shipping port that was subsequently loaded with 2,700 metric tons of corn kernels (cargo). A dose of 2,600 g PH3 was injected (approximately 1.03 g PH3/ton cargo) without the use of a turbine (e.g., fan). A PH3 sensor was then used to measure the air quality immediately above the surface of the cargo and the gas concentration the approximately 1 meter below the surface of the cargo (using a probe) at predetermined time intervals.
as §1, with “On the same day as Experiment 1, a fumigation” for “A fumigation”, “at the” for “at a”, “of 2,200” for “of 2,600”, “(approximately 0.814” for “(approximately 1.03”, “cargo) with” for “cargo) without the use of”, “(e.g., fan) to push the PH3. The” for “(e.g., fan). A”
The day following Experiment 1 and Experiment 2, a fumigation apparatus, such as the fumigation apparatus 10 (FIGS. 1A-1C), was provided in a barge hatch at the source shipping port that was subsequently loaded with 2,700 metric tons of corn kernels (cargo). A dose of 1,700 g PH3 was injected (approximately […]) without auxiliary turbine and only with the air flow of the phosphine mixture delivery equipment itself (e.g., approximately 200 m^3/hour). The PH3 sensor was then used to measure the air quality immediately above the surface of the cargo and the gas concentration the approximately 1 meter below the surface of the cargo (using a probe) at predetermined time intervals.
The same day as Experiment 3, and eight days thereafter, nine barges were loaded and fumigated in a similar manner as in Experiment 3 to test repeatability.

Orzaephilus surinamensis = details: exposed for 24 Hours at 26.7° C. (80° F.), cited from earlier work
Tribolium castaneum = details: exposed for 24 Hours at 26.7° C. (80° F.), cited from earlier work
Lasioderma serricorne = details: exposed for 24 Hours at 26.7° C. (80° F.), cited from earlier work
Plodia interpunctella = details: exposed for 24 Hours at 26.7° C. (80° F.), cited from earlier work

P [PH3, phosphine gas]
Percent (%) Mortality adults (Tribolium confusum; 250 ppm PH3): 100% | Percent (%) Mortality eggs (Tribolium confusum; 250 ppm PH3): 59-80% | Percent (%) Mortality larvae (Tribolium confusum; 250 ppm PH3): 100% | Percent (%) Mortality pupae (Tribolium confusum; 250 ppm PH3): 89-95% | Percent (%) Mortality adults (Tribolium confusum; 500 ppm PH3): 100% | Percent (%) Mortality eggs (Tribolium confusum; 500 ppm PH3): 83-100% | Percent (%) Mortality larvae (Tribolium confusum; 500 ppm PH3): 100% | Percent (%) Mortality pupae (Tribolium confusum; 500 ppm PH3): 89-98% | Percent (%) Mortality adults (Tribolium confusum; 1000 ppm PH3): 100% | Percent (%) Mortality eggs (Tribolium confusum; 1000 ppm PH3): 100% | Percent (%) Mortality larvae (Tribolium confusum; 1000 ppm PH3): 100% | Percent (%) Mortality pupae (Tribolium confusum; 1000 ppm PH3): 94-100% | Percent (%) Mortality adults (Amyelois transitella; 250 ppm PH3): 100% | Percent (%) Mortality eggs (Amyelois transitella; 250 ppm PH3): 0-78% | Percent (%) Mortality larvae (Amyelois transitella; 250 ppm PH3): 100% | Percent (%) Mortality pupae (Amyelois transitella; 250 ppm PH3): 100% | Percent (%) Mortality adults (Amyelois transitella; 500 ppm PH3): 100% | Percent (%) Mortality eggs (Amyelois transitella; 500 ppm PH3): 20-80% | Percent (%) Mortality larvae (Amyelois transitella; 500 ppm PH3): 100% | Percent (%) Mortality pupae (Amyelois transitella; 500 ppm PH3): 100% | Percent (%) Mortality adults (Amyelois transitella; 1000 ppm PH3): 100% | Percent (%) Mortality eggs (Amyelois transitella; 1000 ppm PH3): 70-100% | Percent (%) Mortality larvae (Amyelois transitella; 1000 ppm PH3): 100% | Percent (%) Mortality pupae (Amyelois transitella; 1000 ppm PH3): 100% | Percent (%) Mortality adults (Carpophilus hemipterus; 250 ppm PH3): 100% | Percent (%) Mortality eggs (Carpophilus hemipterus; 250 ppm PH3): 100% | Percent (%) Mortality larvae (Carpophilus hemipterus; 250 ppm PH3): 100% | Percent (%) Mortality pupae (Carpophilus hemipterus; 250 ppm PH3): 100% | Percent (%) Mortality adults (Carpophilus hemipterus; 500 ppm PH3): 100% | Percent (%) Mortality eggs (Carpophilus hemipterus; 500 ppm PH3): 100% | Percent (%) Mortality larvae (Carpophilus hemipterus; 500 ppm PH3): 100% | Percent (%) Mortality pupae (Carpophilus hemipterus; 500 ppm PH3): 100% | Percent (%) Mortality adults (Carpophilus hemipterus; 1000 ppm PH3): 100% | Percent (%) Mortality eggs (Carpophilus hemipterus; 1000 ppm PH3): 100% | Percent (%) Mortality larvae (Carpophilus hemipterus; 1000 ppm PH3): 100% | Percent (%) Mortality pupae (Carpophilus hemipterus; 1000 ppm PH3): 100% | cargo condition on arrival (residues and live pests) (live pests; Experiment 1: 2,600 g PH3 in 2,700 metric tons corn kernels, without turbine): free of residues and live pests | cargo condition on arrival (residues and live pests) (live pests; Experiment 2: 2,200 g PH3 in 2,700 metric tons corn kernels, with a turbine): free of residues and live pests | cargo condition on arrival (residues and live pests) (live pests; Experiment 3: 1,700 g PH3 in 2,700 metric tons corn kernels, without auxiliary turbine): free of residues and live pests | cargo condition on arrival (residues and live pests) (live pests; Experiment 4: nine additional barges fumigated as in Experiment 3): free of residues and live pests | Percent (%) Mortality adults (Orzaephilus surinamensis; 250 ppm PH3): 100% | Percent (%) Mortality eggs (Orzaephilus surinamensis; 250 ppm PH3): 100% | Percent (%) Mortality larvae (Orzaephilus surinamensis; 250 ppm PH3): 97-100% | Percent (%) Mortality pupae (Orzaephilus surinamensis; 250 ppm PH3): 100% | Percent (%) Mortality adults (Orzaephilus surinamensis; 500 ppm PH3): 100% | Percent (%) Mortality eggs (Orzaephilus surinamensis; 500 ppm PH3): 100% | Percent (%) Mortality larvae (Orzaephilus surinamensis; 500 ppm PH3): 100% | Percent (%) Mortality pupae (Orzaephilus surinamensis; 500 ppm PH3): 100% | Percent (%) Mortality adults (Orzaephilus surinamensis; 1000 ppm PH3): 100% | Percent (%) Mortality eggs (Orzaephilus surinamensis; 1000 ppm PH3): 100% | Percent (%) Mortality larvae (Orzaephilus surinamensis; 1000 ppm PH3): 100% | Percent (%) Mortality pupae (Orzaephilus surinamensis; 1000 ppm PH3): 100% | Percent (%) Mortality adults (Tribolium castaneum; 250 ppm PH3): 100% | Percent (%) Mortality eggs (Tribolium castaneum; 250 ppm PH3): 90-100% | Percent (%) Mortality larvae (Tribolium castaneum; 250 ppm PH3): 100% | Percent (%) Mortality pupae (Tribolium castaneum; 250 ppm PH3): 100% | Percent (%) Mortality adults (Tribolium castaneum; 500 ppm PH3): 100% | Percent (%) Mortality eggs (Tribolium castaneum; 500 ppm PH3): 100% | Percent (%) Mortality larvae (Tribolium castaneum; 500 ppm PH3): 100% | Percent (%) Mortality pupae (Tribolium castaneum; 500 ppm PH3): 100% | Percent (%) Mortality adults (Tribolium castaneum; 1000 ppm PH3): 100% | Percent (%) Mortality eggs (Tribolium castaneum; 1000 ppm PH3): 100% | Percent (%) Mortality larvae (Tribolium castaneum; 1000 ppm PH3): 100% | Percent (%) Mortality pupae (Tribolium castaneum; 1000 ppm PH3): 100% | Percent (%) Mortality adults (Lasioderma serricorne; 250 ppm PH3): 100% | Percent (%) Mortality eggs (Lasioderma serricorne; 250 ppm PH3): 87-94% | Percent (%) Mortality larvae (Lasioderma serricorne; 250 ppm PH3): 100% | Percent (%) Mortality pupae (Lasioderma serricorne; 250 ppm PH3): 100% | Percent (%) Mortality adults (Lasioderma serricorne; 500 ppm PH3): 100% | Percent (%) Mortality eggs (Lasioderma serricorne; 500 ppm PH3): 87-96% | Percent (%) Mortality larvae (Lasioderma serricorne; 500 ppm PH3): 100% | Percent (%) Mortality pupae (Lasioderma serricorne; 500 ppm PH3): 100% | Percent (%) Mortality adults (Lasioderma serricorne; 1000 ppm PH3): 100% | Percent (%) Mortality eggs (Lasioderma serricorne; 1000 ppm PH3): 96-100% | Percent (%) Mortality larvae (Lasioderma serricorne; 1000 ppm PH3): 100% | Percent (%) Mortality pupae (Lasioderma serricorne; 1000 ppm PH3): 100% | Percent (%) Mortality adults (Plodia interpunctella; 250 ppm PH3): 100% | Percent (%) Mortality eggs (Plodia interpunctella; 250 ppm PH3): 89-96% | Percent (%) Mortality larvae (Plodia interpunctella; 250 ppm PH3): 95-100% | Percent (%) Mortality pupae (Plodia interpunctella; 250 ppm PH3): 100% | Percent (%) Mortality adults (Plodia interpunctella; 500 ppm PH3): 100% | Percent (%) Mortality eggs (Plodia interpunctella; 500 ppm PH3): 90-100% | Percent (%) Mortality larvae (Plodia interpunctella; 500 ppm PH3): 97-99% | Percent (%) Mortality pupae (Plodia interpunctella; 500 ppm PH3): 100% | Percent (%) Mortality adults (Plodia interpunctella; 1000 ppm PH3): 100% | Percent (%) Mortality eggs (Plodia interpunctella; 1000 ppm PH3): 95-100% | Percent (%) Mortality larvae (Plodia interpunctella; 1000 ppm PH3): 100% | Percent (%) Mortality pupae (Plodia interpunctella; 1000 ppm PH3): 100%
